{"source": "ChEMBL document CHEMBL4364276", "about": "“Discovery of 4-phenyl-2H-benzo[b][1,4]oxazin-3(4H)-one derivatives as potent and orally active PI3K/mTOR dual inhibitors” (Eur J Med Chem, 2019)", "key": {"[1]": {"target": "Serine/threonine-protein kinase mTOR (Homo sapiens, UniProt P42345)", "test": "Inhibition of recombinant human N-terminal FLAG-tagged mTOR (1362 to end residues) using Ulight-4E-BP1 as substrate incubated for 30 mins by fluorescence assay"}, "[2]": {"target": "PI3-kinase p110-delta/p85-alpha (Homo sapiens, UniProt O00329)", "test": "Inhibition of recombinant human full length N-terminal GST-tagged PI3Kdelta (1 to 1044 residues)/PIK3R1 (1 to 724 residues) expressed in baculovirus expression system using PIP2 as substrate incubated for 2 hrs by ADP-Glo assay"}, "[3]": {"test": "Half life in Sprague-Dawley rat at 10 mg/kg, po measured upto 24 hrs by LC-MS/MS analysis", "format": "ADME, organism-based", "settings": "in vivo"}, "A549 [4]": {"test_system": "A549", "test": "Antitumor activity against human A549 cells xenografted in BALB/c nude mouse assessed as tumor growth inhibition at 20 mg/kg, ig administered for 30 days measured every 3 days during compound dosing relative to control", "format": "functional", "settings": "A549, po, read-out: TGI"}, "[5]": {"target": "Serine/threonine-protein kinase BRSK1 (Homo sapiens) (UniProt Q8TDC3)", "test": "Inhibition of human BRSK1 at 100 nM using KKKVSRSGLYRSPSMPENLNRPR as substrate by [gamma-33P]-ATP assay"}, "[6]": {"target": "CDK1/Cyclin E (Homo sapiens) (UniProt P06493+P24864)", "test": "Inhibition of human CDK1/cyclinE at 100 nM using RB protein as substrate by [gamma-33P]-ATP assay", "format": "protein-complex assay"}, "[7]": {"target": "Cyclin-dependent kinase 2/cyclin E1 (Homo sapiens) (UniProt P24864+P24941)", "test": "Inhibition of human CDK2/cyclin-E at 100 nM using histone H1 as substrate by [gamma-33P]-ATP assay", "format": "protein-complex assay"}, "[8]": {"target": "CDK3/Cyclin E (Homo sapiens) (UniProt P24864+Q00526)", "test": "Inhibition of human CDK3/cyclin-E at 100 nM using histone H1 as substrate by [gamma-33P]-ATP assay", "format": "protein-complex assay"}, "[9]": {"target": "CDK3/Cyclin-E2 (Homo sapiens) (UniProt O96020+Q00526)", "test": "Inhibition of human CDK3/cyclin-E2 at 100 nM using histone H1 as substrate by [gamma-33P]-ATP assay", "format": "protein-complex assay"}, "[10]": {"target": "Dual specificity tyrosine-phosphorylation-regulated kinase 1A (Homo sapiens) (UniProt Q13627)", "test": "Inhibition of human DYRK1A at 100 nM using RRRFRPASPLRGPPK as substrate by [gamma-33P]-ATP assay"}, "[11]": {"target": "Dual specificity tyrosine-phosphorylation-regulated kinase 4 (Homo sapiens) (UniProt Q9NR20)", "test": "Inhibition of human DYRK4 at 100 nM using RRRFRPASPLRGPPK as substrate by [gamma-33P]-ATP assay"}, "[12]": {"target": "Ephrin type-A receptor 4 (Homo sapiens) (UniProt P54764)", "test": "Inhibition of human EPHA4 at 100 nM using poly[Glu:Tyr] (4:1) as substrate by [gamma-33P]-ATP assay"}, "[13]": {"target": "Ephrin type-A receptor 6 (Homo sapiens) (UniProt Q9UF33)", "test": "Inhibition of human EPHA6 at 100 nM using poly[Glu:Tyr] (4:1) as substrate by [gamma-33P]-ATP assay"}, "[14]": {"target": "Ephrin type-A receptor 7 (Homo sapiens) (UniProt Q15375)", "sequence (Q15375 28-998 limits assumed)": "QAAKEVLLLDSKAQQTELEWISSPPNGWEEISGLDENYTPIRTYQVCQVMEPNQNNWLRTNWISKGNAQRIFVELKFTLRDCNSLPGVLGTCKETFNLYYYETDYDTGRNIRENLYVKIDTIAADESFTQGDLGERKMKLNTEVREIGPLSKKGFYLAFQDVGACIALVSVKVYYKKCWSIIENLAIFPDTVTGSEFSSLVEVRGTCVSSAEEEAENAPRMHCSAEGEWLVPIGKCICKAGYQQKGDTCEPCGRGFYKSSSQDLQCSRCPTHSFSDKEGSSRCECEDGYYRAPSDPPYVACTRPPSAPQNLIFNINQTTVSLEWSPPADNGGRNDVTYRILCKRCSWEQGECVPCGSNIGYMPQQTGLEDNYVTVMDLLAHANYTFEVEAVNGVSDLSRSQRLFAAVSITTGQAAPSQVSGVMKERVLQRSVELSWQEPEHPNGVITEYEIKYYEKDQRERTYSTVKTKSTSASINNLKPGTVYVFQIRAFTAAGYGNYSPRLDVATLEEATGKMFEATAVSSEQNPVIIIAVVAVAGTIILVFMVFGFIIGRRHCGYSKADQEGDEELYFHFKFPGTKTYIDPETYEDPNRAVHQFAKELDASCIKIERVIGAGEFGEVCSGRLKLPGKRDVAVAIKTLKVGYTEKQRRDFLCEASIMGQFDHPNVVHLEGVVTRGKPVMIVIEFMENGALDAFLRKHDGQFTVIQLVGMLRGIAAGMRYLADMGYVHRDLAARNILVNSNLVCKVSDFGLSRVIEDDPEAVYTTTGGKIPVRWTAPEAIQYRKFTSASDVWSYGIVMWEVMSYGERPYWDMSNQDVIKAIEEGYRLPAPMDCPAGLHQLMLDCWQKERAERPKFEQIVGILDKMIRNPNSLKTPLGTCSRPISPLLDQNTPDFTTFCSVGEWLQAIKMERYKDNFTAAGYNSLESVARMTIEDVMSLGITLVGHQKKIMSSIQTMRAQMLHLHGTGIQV", "test": "Inhibition of human EPHA7 at 100 nM using poly[Glu:Tyr] (4:1) as substrate by [gamma-33P]-ATP assay"}, "[15]": {"target": "Serine/threonine-protein kinase/endoribonuclease IRE1 (Homo sapiens) (UniProt O75460)", "test": "Inhibition of human ERN1 at 100 nM using MBP as substrate by [gamma-33P]-ATP assay"}, "[16]": {"target": "Tyrosine-protein kinase Fer (Homo sapiens) (UniProt P16591)", "test": "Inhibition of human FER at 100 nM using poly[Glu:Tyr] (4:1) as substrate by [gamma-33P]-ATP assay"}, "[17]": {"target": "G protein-coupled receptor kinase 5 (Homo sapiens) (UniProt P34947)", "test": "Inhibition of human GRK5 at 100 nM using casein as substrate by [gamma-33P]-ATP assay"}, "[18]": {"target": "Insulin-like growth factor 1 receptor (Homo sapiens) (UniProt P08069)", "sequence (P08069 31-736 limits assumed)": "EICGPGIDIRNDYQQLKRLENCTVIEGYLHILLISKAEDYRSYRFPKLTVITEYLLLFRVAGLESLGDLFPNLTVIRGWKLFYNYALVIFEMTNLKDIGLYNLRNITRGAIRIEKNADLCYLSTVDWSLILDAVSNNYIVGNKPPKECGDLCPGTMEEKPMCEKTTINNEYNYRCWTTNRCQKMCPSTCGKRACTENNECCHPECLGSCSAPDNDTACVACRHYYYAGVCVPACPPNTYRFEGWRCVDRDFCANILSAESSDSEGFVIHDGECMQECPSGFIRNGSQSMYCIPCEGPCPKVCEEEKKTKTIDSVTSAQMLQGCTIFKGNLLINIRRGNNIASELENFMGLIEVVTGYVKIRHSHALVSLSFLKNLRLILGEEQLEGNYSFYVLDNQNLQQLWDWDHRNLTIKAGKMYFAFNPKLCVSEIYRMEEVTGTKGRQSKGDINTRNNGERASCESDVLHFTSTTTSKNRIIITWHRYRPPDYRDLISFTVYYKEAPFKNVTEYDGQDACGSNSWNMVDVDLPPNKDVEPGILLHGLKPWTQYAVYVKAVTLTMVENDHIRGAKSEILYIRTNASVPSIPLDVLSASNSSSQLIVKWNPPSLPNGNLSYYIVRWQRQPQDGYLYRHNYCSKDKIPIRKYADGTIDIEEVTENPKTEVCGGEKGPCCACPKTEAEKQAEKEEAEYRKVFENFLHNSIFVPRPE", "sequence (P08069 741-1367 limits assumed)": "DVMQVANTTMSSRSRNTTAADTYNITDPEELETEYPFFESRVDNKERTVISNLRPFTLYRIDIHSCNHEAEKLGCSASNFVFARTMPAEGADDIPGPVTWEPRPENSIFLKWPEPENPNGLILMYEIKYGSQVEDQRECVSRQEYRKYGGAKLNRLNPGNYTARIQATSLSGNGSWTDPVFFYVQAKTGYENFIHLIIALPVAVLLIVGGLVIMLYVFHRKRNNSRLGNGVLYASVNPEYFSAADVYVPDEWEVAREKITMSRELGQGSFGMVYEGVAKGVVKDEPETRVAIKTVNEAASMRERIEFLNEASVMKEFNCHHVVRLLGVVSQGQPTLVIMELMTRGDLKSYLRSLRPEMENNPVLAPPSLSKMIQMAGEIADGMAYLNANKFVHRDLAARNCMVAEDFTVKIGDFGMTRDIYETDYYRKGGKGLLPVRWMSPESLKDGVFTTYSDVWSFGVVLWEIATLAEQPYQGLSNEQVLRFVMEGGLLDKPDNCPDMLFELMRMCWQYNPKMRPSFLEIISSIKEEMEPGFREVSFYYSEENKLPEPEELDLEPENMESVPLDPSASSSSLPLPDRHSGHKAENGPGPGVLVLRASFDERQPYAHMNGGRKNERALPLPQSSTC", "test": "Inhibition of human IGF1R at 100 nM using KKKSPGEYVNIEFG as substrate by [gamma-33P]-ATP assay"}, "[19]": {"target": "Myosin-IIIa (Homo sapiens) (UniProt Q8NEV4)", "sequence (Q8NEV4 whole entry)": "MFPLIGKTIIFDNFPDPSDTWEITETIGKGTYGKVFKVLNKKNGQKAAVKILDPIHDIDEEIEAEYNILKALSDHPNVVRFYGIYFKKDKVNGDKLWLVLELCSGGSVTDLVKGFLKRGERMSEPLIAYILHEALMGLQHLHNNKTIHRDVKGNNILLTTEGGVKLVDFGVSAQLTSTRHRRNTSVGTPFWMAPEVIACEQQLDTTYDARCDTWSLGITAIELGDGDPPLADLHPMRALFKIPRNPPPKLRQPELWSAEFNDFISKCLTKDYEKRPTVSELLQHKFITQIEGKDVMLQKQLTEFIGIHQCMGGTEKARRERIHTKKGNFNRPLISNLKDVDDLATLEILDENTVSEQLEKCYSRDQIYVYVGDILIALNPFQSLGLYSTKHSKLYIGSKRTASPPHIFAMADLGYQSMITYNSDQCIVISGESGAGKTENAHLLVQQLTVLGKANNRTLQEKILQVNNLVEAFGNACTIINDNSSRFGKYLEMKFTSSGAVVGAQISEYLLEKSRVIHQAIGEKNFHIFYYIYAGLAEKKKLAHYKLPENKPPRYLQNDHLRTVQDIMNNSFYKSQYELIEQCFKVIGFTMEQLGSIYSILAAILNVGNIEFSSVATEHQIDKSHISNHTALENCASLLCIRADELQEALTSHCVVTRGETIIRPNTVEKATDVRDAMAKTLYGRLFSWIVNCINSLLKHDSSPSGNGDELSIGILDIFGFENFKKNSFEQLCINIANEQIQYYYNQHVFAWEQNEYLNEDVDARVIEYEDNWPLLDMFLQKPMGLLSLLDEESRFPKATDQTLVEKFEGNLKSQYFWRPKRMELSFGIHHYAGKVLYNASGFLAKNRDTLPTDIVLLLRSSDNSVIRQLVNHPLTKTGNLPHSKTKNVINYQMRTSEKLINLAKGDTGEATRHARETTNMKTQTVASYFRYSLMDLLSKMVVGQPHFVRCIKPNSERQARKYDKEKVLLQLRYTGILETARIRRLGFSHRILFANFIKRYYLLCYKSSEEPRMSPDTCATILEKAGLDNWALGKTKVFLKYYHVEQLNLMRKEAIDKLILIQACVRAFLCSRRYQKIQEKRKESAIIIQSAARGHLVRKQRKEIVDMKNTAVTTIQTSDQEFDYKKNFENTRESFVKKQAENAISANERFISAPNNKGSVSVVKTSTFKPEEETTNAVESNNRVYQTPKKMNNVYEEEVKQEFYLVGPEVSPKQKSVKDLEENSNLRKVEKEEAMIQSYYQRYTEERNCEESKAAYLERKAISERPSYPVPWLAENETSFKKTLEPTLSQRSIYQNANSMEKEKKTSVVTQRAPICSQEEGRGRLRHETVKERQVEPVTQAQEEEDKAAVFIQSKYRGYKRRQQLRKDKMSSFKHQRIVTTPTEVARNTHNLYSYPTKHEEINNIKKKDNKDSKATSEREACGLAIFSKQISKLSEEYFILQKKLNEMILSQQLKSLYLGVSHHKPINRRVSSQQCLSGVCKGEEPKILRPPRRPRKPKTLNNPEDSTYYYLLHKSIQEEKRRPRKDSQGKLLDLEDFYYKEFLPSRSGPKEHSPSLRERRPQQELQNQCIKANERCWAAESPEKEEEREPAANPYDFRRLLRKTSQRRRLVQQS", "test": "Inhibition of human MYO3A at 100 nM using MBP as substrate by [gamma-33P]-ATP assay"}, "[20]": {"target": "Serine/threonine-protein kinase Nek5 (Homo sapiens) (UniProt Q6P3R8)", "test": "Inhibition of human NEK5 at 100 nM using MBP as substrate by [gamma-33P]-ATP assay"}, "[21]": {"target": "Mitogen-activated protein kinase 11 (Homo sapiens) (UniProt Q15759)", "test": "Inhibition of human p38beta at 100 nM using MBP as substrate by [gamma-33P]-ATP assay"}, "[22]": {"target": "Serine/threonine-protein kinase PAK 6 (Homo sapiens) (UniProt Q9NQU5)", "test": "Inhibition of human PAK6 at 100 nM using RRRLSFAEPG as substrate by [gamma-33P]-ATP assay"}, "[23]": {"target": "cGMP-dependent protein kinase 1 (Homo sapiens) (UniProt Q13976)", "sequence (Q13976 whole entry)": "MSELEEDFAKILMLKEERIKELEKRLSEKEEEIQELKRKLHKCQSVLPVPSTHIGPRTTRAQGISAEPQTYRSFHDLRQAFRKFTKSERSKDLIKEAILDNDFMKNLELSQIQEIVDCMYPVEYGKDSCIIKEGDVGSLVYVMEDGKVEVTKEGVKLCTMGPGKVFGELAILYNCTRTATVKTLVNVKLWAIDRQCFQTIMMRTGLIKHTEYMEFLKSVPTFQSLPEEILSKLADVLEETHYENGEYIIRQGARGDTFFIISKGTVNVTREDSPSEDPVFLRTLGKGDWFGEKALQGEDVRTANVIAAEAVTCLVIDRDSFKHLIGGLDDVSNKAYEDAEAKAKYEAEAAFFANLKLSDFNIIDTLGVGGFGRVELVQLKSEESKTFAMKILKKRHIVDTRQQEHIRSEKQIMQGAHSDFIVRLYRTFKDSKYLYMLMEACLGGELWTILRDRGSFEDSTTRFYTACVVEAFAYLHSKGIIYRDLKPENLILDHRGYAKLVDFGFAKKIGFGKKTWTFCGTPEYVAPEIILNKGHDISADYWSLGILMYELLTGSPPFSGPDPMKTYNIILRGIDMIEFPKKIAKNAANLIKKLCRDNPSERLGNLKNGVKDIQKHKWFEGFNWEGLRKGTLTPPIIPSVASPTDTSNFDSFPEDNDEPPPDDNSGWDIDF", "test": "Inhibition of human PKG1beta at 100 nM using LRRASLG as substrate by [gamma-33P]-ATP assay"}, "[24]": {"target": "STE20-like serine/threonine-protein kinase (Homo sapiens) (UniProt Q9H2G2)", "test": "Inhibition of human SLK at 100 nM using Histone H3 as substrate by [gamma-33P]-ATP assay"}, "[25]": {"target": "Testis-specific serine/threonine-protein kinase 1 (Homo sapiens) (UniProt Q9BXA7)", "test": "Inhibition of human STK22D at 100 nM using KKKVSRSGLYRSPSMPENLNRPR as substrate by [gamma-33P]-ATP assay"}, "[26]": {"target": "Serine/threonine-protein kinase 32C (Homo sapiens) (UniProt Q86UX6)", "sequence (Q86UX6 whole entry)": "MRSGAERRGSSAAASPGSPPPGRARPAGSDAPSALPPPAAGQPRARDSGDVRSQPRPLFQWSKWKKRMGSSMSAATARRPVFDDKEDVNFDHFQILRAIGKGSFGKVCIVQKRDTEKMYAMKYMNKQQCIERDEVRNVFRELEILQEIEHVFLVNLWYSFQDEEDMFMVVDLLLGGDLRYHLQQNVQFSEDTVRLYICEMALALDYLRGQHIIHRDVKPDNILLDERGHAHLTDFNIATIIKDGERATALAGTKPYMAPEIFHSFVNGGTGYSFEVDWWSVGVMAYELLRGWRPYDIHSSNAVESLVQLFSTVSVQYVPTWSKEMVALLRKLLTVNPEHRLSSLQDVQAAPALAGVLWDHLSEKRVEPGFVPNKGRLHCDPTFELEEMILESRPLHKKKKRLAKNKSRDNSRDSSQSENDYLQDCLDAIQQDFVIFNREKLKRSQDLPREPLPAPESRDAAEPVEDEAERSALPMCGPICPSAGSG", "test": "Inhibition of human STK32C at 100 nM using MBP as substrate by [gamma-33P]-ATP assay"}, "[27]": {"target": "NT-3 growth factor receptor (Homo sapiens) (UniProt Q16288)", "test": "Inhibition of human TRKC at 100 nM using poly[Glu:Tyr] (4:1) as substrate by [gamma-33P]-ATP assay"}, "[28]": {"target": "Serine/threonine-protein kinase WNK2 (Homo sapiens) (UniProt Q9Y3S1)", "test": "Inhibition of human WNK2 at 100 nM using MBP as substrate by [gamma-33P]-ATP assay"}, "[29]": {"target": "Tyrosine-protein kinase Yes (Homo sapiens) (UniProt P07947)", "test": "Inhibition of human YES at 100 nM using poly[Glu:Tyr] (4:1) as substrate by [gamma-33P]-ATP assay"}, "MCF7": {"test_system": "MCF7", "test": "cells", "settings": "Homo sapiens, MCF7, 72 h"}, "A549 [30]": {"test_system": "A549", "test": "cells", "settings": "Homo sapiens, A549, 72 h"}}}
{"smiles": "COc1ccc(N2C(=O)COc3ccc(-c4cnc(OC)c(NS(=O)(=O)c5ccc(F)cc5)c4)cc32)cc1", "values": [{"measurement": "IC50", "setting": "[1]", "result": 13.9, "unit": "nM"}, {"measurement": "IC50", "setting": "[2]", "result": 9.2, "unit": "nM"}, {"measurement": "half-life", "setting": "[3]", "result": 1.78, "unit": "h"}, {"measurement": "inhibition in vivo at 20 mg/kg", "setting": "A549 [4]", "result": 57.8, "unit": "%"}, {"measurement": "inhibition", "setting": "[5]", "result": 12.8, "unit": "%"}, {"measurement": "inhibition", "setting": "[6]", "result": 7.09, "unit": "%"}, {"measurement": "inhibition", "setting": "[7]", "result": 11.2, "unit": "%"}, {"measurement": "inhibition", "setting": "[8]", "result": 2.71, "unit": "%"}, {"measurement": "inhibition", "setting": "[9]", "result": 4, "unit": "%"}, {"measurement": "inhibition", "setting": "[10]", "result": 5.57, "unit": "%"}, {"measurement": "inhibition", "setting": "[11]", "result": -2.6, "unit": "%"}, {"measurement": "inhibition", "setting": "[12]", "result": 6.1, "unit": "%"}, {"measurement": "inhibition", "setting": "[13]", "result": -9.63, "unit": "%"}, {"measurement": "inhibition", "setting": "[14]", "result": 11.5, "unit": "%"}, {"measurement": "inhibition", "setting": "[15]", "result": -2.68, "unit": "%"}, {"measurement": "inhibition", "setting": "[16]", "result": 29.8, "unit": "%"}, {"measurement": "inhibition", "setting": "[17]", "result": -0.54, "unit": "%"}, {"measurement": "inhibition", "setting": "[18]", "result": -4.3, "unit": "%"}, {"measurement": "inhibition", "setting": "[19]", "result": 2.8, "unit": "%"}, {"measurement": "inhibition", "setting": "[20]", "result": 1.15, "unit": "%"}, {"measurement": "inhibition", "setting": "[21]", "result": 9.33, "unit": "%"}, {"measurement": "inhibition", "setting": "[22]", "result": 2.76, "unit": "%"}, {"measurement": "inhibition", "setting": "[23]", "result": -9.98, "unit": "%"}, {"measurement": "inhibition", "setting": "[24]", "result": -0.32, "unit": "%"}, {"measurement": "inhibition", "setting": "[25]", "result": -6.47, "unit": "%"}, {"measurement": "inhibition", "setting": "[26]", "result": -6.39, "unit": "%"}, {"measurement": "inhibition", "setting": "[27]", "result": 2.63, "unit": "%"}, {"measurement": "inhibition", "setting": "[28]", "result": 2.82, "unit": "%"}, {"measurement": "inhibition", "setting": "[29]", "result": 3.18, "unit": "%"}, {"measurement": "IC50", "setting": "MCF7", "result": 8260, "unit": "nM"}, {"measurement": "IC50", "setting": "A549 [30]", "result": 1350, "unit": "nM"}]}
